Data on 15 molecules can be found in patent US20230036854A1, “HETEROCYCLIC SPIRO-COMPOUNDS AS AM2 RECEPTOR INHIBITORS” (THE UNIVERSITY OF SHEFFIELD, priority 2018, published 2023).

T1 sequence (Q16602 23-461): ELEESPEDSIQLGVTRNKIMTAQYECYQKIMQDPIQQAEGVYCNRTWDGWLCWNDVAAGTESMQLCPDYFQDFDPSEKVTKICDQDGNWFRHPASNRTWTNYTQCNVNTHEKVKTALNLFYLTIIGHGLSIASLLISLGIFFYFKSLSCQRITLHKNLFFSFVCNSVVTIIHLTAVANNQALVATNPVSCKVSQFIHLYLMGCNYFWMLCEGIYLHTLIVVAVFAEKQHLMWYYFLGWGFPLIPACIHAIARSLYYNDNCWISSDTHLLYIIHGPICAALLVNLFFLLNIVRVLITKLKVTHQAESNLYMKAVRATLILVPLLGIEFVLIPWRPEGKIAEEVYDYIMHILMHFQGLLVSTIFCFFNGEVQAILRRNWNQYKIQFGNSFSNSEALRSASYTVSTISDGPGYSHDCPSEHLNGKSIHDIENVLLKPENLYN
T1 sequence (O60896 24-148): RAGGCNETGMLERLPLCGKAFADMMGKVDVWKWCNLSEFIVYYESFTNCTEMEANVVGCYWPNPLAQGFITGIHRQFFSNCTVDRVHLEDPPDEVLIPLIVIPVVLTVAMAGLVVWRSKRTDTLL

This assay addresses T1, AM2 receptor (1321N1 cells transfected with CALCRL+RAMP3) (Homo sapiens, UniProt O60896+Q16602).
T1 construct: host or cells: 1321N1 cells
As to the kind of experiment: AM2 receptor inhibition, LANCE cAMP agonist-antagonist competition assay. The format is cell-based. To be noted: inhibition of AM induced cAMP activation, read-out: AM2 D2 protocol: pIC50 (converted). Here is the method:
Compounds were assessed for their ability to inhibit ligand-induced elevations of cAMP, using the Perkin Elmer LANCE cAMP assay using commercially-available cells expressing a specific receptor of interest using the following general procedure:
Compounds were prepared in dimethyl sulfoxide (DMSO—99.9% pure) (Sigma Aldrich, Cat #: D4540) added to powder stocks to produce a 20 mM solution (100% DMSO) that was sonicated at 37° C. for 10 minutes to fully dissolve the compounds. The 20 mM stocks were diluted further in DMSO to produce a 2 mM solution that was sonicated at 37° C. for 10 minutes. 2 mM stocks were dissolved in assay/stimulation buffer to produce a 400 μM solution that was sonicated at 37° C. for 10 minutes for all cAMP assays. All stocks were stored at −20° C. Then serial dilution (Dilution factor: 10) was performed to achieve the desire experimental concentrations.
Competition assays were performed according to the manufactures instructions using LANCE® TR-FRET cAMP assay kit (Perkin Elmer, Cat #: AD0264). Serial dilutions (3 μl/well) of the molecules were plated in a 384-well OptiPlate (Perkin Elmer, Cat #: 6007299) in duplicates. Appropriate controls (100% stimulation: Forskolin and 0% stimulation: Vehicle control) (6 μl/well) were included in each plate for data normalization. Following the compound addition, 6 μl of G-protein coupled receptor overexpressing cells/Alexa Fluor antibody solution (1:100 dilution) was added in each well at a desired density of 2500cells/well. The overexpressing cell lines were purchased from DiscoveRx, Birmingham, UK. After spinning the plate at 1000 rpm for 1 minute and vortexing briefly, the cells were pre-incubated with the compounds for 30 minutes at room temperature (covered). Then 3 μl of the equivalent peptide ligand (EC50 dose) was added to all the wells except vehicle and forskolin controls. The plate were then spun down at 1000 rpm for 1 minute and once finished they were vortexed briefly and covered. Cells were stimulated in the presence of the ligands for 15 minutes at room temperature. After stimulation 12 μl of detection mix (Europium-Chelate streptavidin/biotinylated cAMP tracer solution) was added to all wells and incubated for 60 minutes at room temperature. The plate was then read on the Enspire multimode Plate reader (Perkin Elmer), at; 320/340 nm excitation and 615/665 nm emission was recorded.
Assay/Stimulation Buffer (30 mL)—pH 7.4 • 28 mL Hank's Balanced salt solution (+MgCl2, +CaCl2)—(Thermo Fisher Cat #:14170112) • 150 μl HEPES (1M)—(Thermo Fisher Cat #:15630080) • 400 μl Stabilizer (DTPA) Purified BSA (7.5%)—(Perkin Elmer, Cat #: CR84-100)
The ability of a compound to inhibit the AM induced cAMP activation in AM2 receptor-expressing cells (1321N1 cells transfected with CALCRL+RAMP3, sourced from DiscoverX catalogue number 95-0169C6) was assessed using the protocol above.
In general terms: Time-resolved FRET reads energy transfer from a long-lived donor to a nearby acceptor.
In the case of `CNCc1ccccc1CN(CC(=O)Nc1ccc2c(c1)CC1(C2)C(=O)Nc2ncccc21)C(=O)C1(C)CCN(C(C)=O)CC1` (stereo not drawn) [Example 1, 1-Acetyl-4-methyl-N-(2-((methylamino)methyl)benzyl)-N-(2-oxo-2-((2′-oxo-1,1′,2′,3-tetrahydrospiro[indene-2,3′-pyrrolo[2,3-b]pyridin]-5-yl)amino)ethyl)piperidine-4-carboxamide 2,2,2-trifluoroacetate], the IC50 is 2.57 nM.
The value for `CNCc1ccccc1CN(CC(=O)Nc1ccc2c(c1)CC1(C2)C(=O)Nc2ncccc21)C(=O)C1(C)CCNCC1` (stereo not drawn) [Example 2, 4-Methyl-N-(2-((methylamino)methyl)benzyl)-N-(2-oxo-2-((2′-oxo-1,1′,2′,3-tetrahydrospiro[indene-2,3′-pyrrolo[2,3-b]pyridin]-5-yl)amino)ethyl)piperidine-4-carboxamide bis(2,2,2-trifluoroacetate)] was 3.39 nM.
On to `CNCc1ccccc1CN(CC(=O)Nc1ccc2c(c1)C[C@@]1(C2)C(=O)Nc2ncccc21)C(=O)C1(C)CCNCC1` [Example 3, (R)-4-Methyl-N-(2-((methylamino)methyl)benzyl)-N-(2-oxo-2-((2′-oxo-1,1′,2′,3-tetrahydrospiro[indene-2,3′-pyrrolo[2,3-b]pyridin]-5-yl)amino)ethyl)piperidine-4-carboxamide], for which the IC50 was 7.76 nM.
The result for `CNCc1ccccc1CN(CC(=O)Nc1ccc2c(c1)CC1(C2)C(=O)Nc2ncccc21)C(=O)C1(C)CCN(C(=O)c2ccccc2)CC1` (stereo not drawn) [Example 4, 1-Benzoyl-4-methyl-N-(2-((methylamino)methyl)benzyl)-N-(2-oxo-2-((2′-oxo-1,1′,2′,3-tetrahydrospiro[indene-2,3′-pyrrolo[2,3-b]pyridin]-5-yl)amino)ethyl)piperidine-4-carboxamide] reads 2.19 nM; that for `CNCc1ccccc1CN(CC(=O)Nc1ccc2c(c1)CC1(C2)C(=O)Nc2ncccc21)C(=O)C1(C)CCN(C(=O)C2CCC2)CC1` (stereo not drawn) [Example 5, 1-(Cyclobutanecarbonyl)-4-methyl-N-(2-((methylamino)methyl)benzyl)-N-(2-oxo-2-((2′-oxo-1,1′,2′,3-tetrahydrospiro[indene-2,3′-pyrrolo[2,3-b]pyridin]-5-yl)amino)ethyl)piperidine-4-carboxamide], 1.48 nM.
The value for `CNCc1ccccc1CN(CC(=O)Nc1ccc2c(c1)CC1(C2)C(=O)Nc2ncccc21)C(=O)C1(C)CCN(C(=O)c2ccncc2)CC1` (stereo not drawn) [Example 6, 1-Isonicotinoyl-4-methyl-N-(2-((methylamino)methyl)benzyl)-N-(2-oxo-2-((2′-oxo-1,1′,2′,3-tetrahydrospiro[indene-2,3′-pyrrolo[2,3-b]pyridin]-5-yl)amino)ethyl)piperidine-4-carboxamide] was 2.29 nM.
The value for `CNCc1ccccc1CN(CC(=O)Nc1ccc2c(c1)C[C@@]1(C2)C(=O)Nc2ncccc21)C(=O)C1(C)CCN(C(=O)CC2CCNCC2)CC1` [Example 7, (R)-4-Methyl-N-(2-((methylamino)methyl)benzyl)-N-(2-oxo-2-((2′-oxo-1,1′,2′,3-tetrahydrospiro[indene-2,3′-pyrrolo[2,3-b]pyridin]-5-yl)amino)ethyl)-1-(2-(piperidin-4-yl)acetyl)piperidine-4-carboxamide] was 4.07 nM; that for `CNCc1ccccc1CN(CC(=O)Nc1ccc2c(c1)C[C@@]1(C2)C(=O)Nc2ncccc21)C(=O)C1(C)CCN(C(=O)C[C@@H]2CCNC2)CC1` [Example 8, 4-Methyl-N-(2-((methylamino)methyl)benzyl)-N-(2-oxo-2-(((R)-2′-oxo-1,1′,2′,3-tetrahydrospiro[indene-2,3′-pyrrolo[2,3-b]pyridin]-5-yl)amino)ethyl)-1-(2-((S)-pyrrolidin-3-yl)acetyl)piperidine-4-carboxamide] was 18.2 nM.
Consider `CNCc1ccccc1CN(CC(=O)Nc1ccc2c(c1)C[C@@]1(C2)C(=O)Nc2ncccc21)C(=O)C1(C)CCN(C(=O)C2CCNCC2)CC1` [Example 9, (R)-4-Methyl-N-(2-((methylamino)methyl)benzyl)-N-(2-oxo-2-((2′-oxo-1,1′,2′,3-tetrahydrospiro[indene-2,3′-pyrrolo[2,3-b]pyridin]-5-yl)amino)ethyl)-1-(piperidine-4-carbonyl)piperidine-4-carboxamide], for which the IC50 was 5.13 nM.
The value for `CNCc1ccccc1CN(CC(=O)Nc1ccc2c(c1)C[C@@]1(C2)C(=O)Nc2ncccc21)C(=O)C1(C)CCN(C(=O)c2cccc(N)n2)CC1` [Example 10, (R)-1-(6-Aminopicolinoyl)-4-methyl-N-(2-((methylamino)methyl)benzyl)-N-(2-oxo-2-((2′-oxo-1,1′,2′,3-tetrahydrospiro[indene-2,3′-pyrrolo[2,3-b]pyridin]-5-yl)amino)ethyl)piperidine-4-carboxamide] was 8.91 nM; that for `CNCc1ccccc1CN(CC(=O)Nc1ccc2c(c1)C[C@@]1(C2)C(=O)Nc2ncccc21)C(=O)C1(C)CCN(C(=O)C[C@H]2CCNC2)CC1` [Example 11, 4-Methyl-N-(2-((methylamino)methyl)benzyl)-N-(2-oxo-2-(((R)-2′-oxo-1,1′,2′,3-tetrahydrospiro[indene-2,3′-pyrrolo[2,3-b]pyridin]-5-yl)amino)ethyl)-1-(2-((R)-pyrrolidin-3-yl)acetyl)piperidine-4-carboxamide] was 6.46 nM.
The value for `CNCc1ccccc1CN(CC(=O)Nc1ccc2c(c1)C[C@@]1(C2)C(=O)Nc2ncccc21)C(=O)C1(C)CCN(C(=O)C2CCN(C(C)=O)CC2)CC1` [Example 12, (R)-1-(1-Acetylpiperidine-4-carbonyl)-4-methyl-N-(2-((methylamino)methyl)benzyl)-N-(2-oxo-2-((2′-oxo-1,1′,2′,3-tetrahydrospiro[indene-2,3′-pyrrolo[2,3-b]pyridin]-5-yl)amino)ethyl)piperidine-4-carboxamide] was 9.12 nM.
For `CNCc1ccccc1CN(CC(=O)Nc1ccc2c(c1)C[C@@]1(C2)C(=O)Nc2ncccc21)C(=O)C1(C)CCN(C(=O)Cc2ccncc2)CC1` [Example 13, (R)-4-Methyl-N-(2-((methylamino)methyl)benzyl)-N-(2-oxo-2-((2′-oxo-1,1′,2′,3-tetrahydrospiro[indene-2,3′-pyrrolo[2,3-b]pyridin]-5-yl)amino)ethyl)-1-(2-(pyridin-4-yl)acetyl)piperidine-4-carboxamide], the IC50 is 15.5 nM.
The result for `CNCc1ccccc1CN(CC(=O)Nc1ccc2c(c1)CC1(C2)C(=O)Nc2ncccc21)C(=O)C1(C)CCN(C(=O)c2cccnc2)CC1` (stereo not drawn) [Example 14, 4-Methyl-N-(2-((methylamino)methyl)benzyl)-1-nicotinoyl-N-(2-oxo-2-((2′-oxo-1,1′,2′,3-tetrahydrospiro[indene-2,3′-pyrrolo[2,3-b]pyridin]-5-yl)amino)ethyl)piperidine-4-carboxamide] reads 2 nM; that for `CNCc1ccccc1CN(CC(=O)Nc1ccc2c(c1)CC1(C2)C(=O)Nc2ncccc21)C(=O)C1(C)CCN(C(=O)c2ccccn2)CC1` (stereo not drawn) [Example 15, 4-Methyl-N-(2-((methylamino)methyl)benzyl)-N-(2-oxo-2-((2′-oxo-1,1′,2′,3-tetrahydrospiro[indene-2,3′-pyrrolo[2,3-b]pyridin]-5-yl)amino)ethyl)-1-picolinoylpiperidine-4-carboxamide], 0.759 nM.
